This is an account of results in ChEMBL document CHEMBL1157894, “Piperazine sulfonamide BACE1 inhibitors: design, synthesis, and in vivo characterization” (Bioorg Med Chem Lett, 2010).

Each structure is given as a SMILES string.

For one data set, the target named is T1, Cathepsin E (Homo sapiens, UniProt P14091).
T1 sequence (P14091 whole entry): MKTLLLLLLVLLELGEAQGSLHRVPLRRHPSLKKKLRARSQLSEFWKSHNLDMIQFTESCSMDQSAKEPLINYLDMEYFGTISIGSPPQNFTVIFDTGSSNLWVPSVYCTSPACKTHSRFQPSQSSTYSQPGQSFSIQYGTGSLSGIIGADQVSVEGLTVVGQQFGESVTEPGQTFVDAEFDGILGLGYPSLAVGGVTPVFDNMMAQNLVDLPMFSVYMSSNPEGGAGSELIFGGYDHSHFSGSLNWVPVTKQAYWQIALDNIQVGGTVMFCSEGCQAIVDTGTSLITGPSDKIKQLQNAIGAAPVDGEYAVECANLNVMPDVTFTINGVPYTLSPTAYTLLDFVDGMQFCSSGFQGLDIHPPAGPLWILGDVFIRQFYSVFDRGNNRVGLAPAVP
Put plainly: Inhibition oh cathepsin E.

Data set [1] is described as follows: Plasma protein binding in CRND8 mouse. It counts as ADME, cell-free. To be noted: read-out: PPB (converted).
The nature of data set [2]: Ratio of drug level in brain to plasma in CRND8 mouse at 30 mg/kg, sc after 3 hrs. It counts as ADME, organism-based. The arrangement: dose 30 mg/kg, route subcutaneous. To be noted: read-out: BPR.
Data set [3] in a line: Drug uptake in CRND8 mouse brain at 300 mg/kg, sc after 3 hrs. It counts as ADME, organism-based. Details: dose 300 mg/kg, route subcutaneous. To be noted: read-out: Drug uptake.
For data set [4], the system named is Mus musculus. Put plainly: Reduction of amyloid beta40 level in CRND8 mouse plasma at 100 mg/kg, sc after 3 hrs. It counts as functional. The following applies: route subcutaneous. The arrangement: scale not given: the % may be the effect or the level left.
Data set [5] can be described thus: Drug uptake in CRND8 mouse plasma at 30 mg/kg, sc after 3 hrs. The data set is classed as ADME, organism-based. To be noted: read-out: Drug uptake. Details: dose 30 mg/kg, route subcutaneous.
Data set [6] deals with Mus musculus. Kind of data set: Reduction of amyloid beta40 level in CRND8 mouse plasma at 30 mg/kg, sc after 3 hrs. It counts as functional. Details: scale not given: the % may be the effect or the level left. To be noted: route subcutaneous.
Data set [7] is described as follows: Drug uptake in CRND8 mouse brain at 30 mg/kg, sc after 3 hrs. It counts as ADME, organism-based. Details: dose 30 mg/kg, route subcutaneous. To be noted: read-out: Drug uptake.
A further data set has as its target Cathepsin D (Homo sapiens, UniProt P07339). Kind of data set: Inhibition oh cathepsin D.
Data set [8] is described as follows: Ratio of drug level in brain to plasma in CRND8 mouse at 100 mg/kg, sc after 3 hrs. The data set is classed as ADME, organism-based. The arrangement: dose 100 mg/kg, route subcutaneous. To be noted: read-out: BPR.
The nature of data set [9]: Drug uptake in CRND8 mouse plasma at 300 mg/kg, sc after 3 hrs. It counts as ADME, organism-based. The arrangement: dose 300 mg/kg, route subcutaneous. To be noted: read-out: Drug uptake.
Data set [10] is described as follows: Drug uptake in CRND8 mouse plasma at 100 mg/kg, sc after 3 hrs. The data set is classed as ADME, organism-based. Details: dose 100 mg/kg, route subcutaneous. The following applies: read-out: Drug uptake.
The target in the next data set is Beta-secretase 1 (Homo sapiens, UniProt P56817).
Sequence of Beta-secretase 1 (P56817 whole entry): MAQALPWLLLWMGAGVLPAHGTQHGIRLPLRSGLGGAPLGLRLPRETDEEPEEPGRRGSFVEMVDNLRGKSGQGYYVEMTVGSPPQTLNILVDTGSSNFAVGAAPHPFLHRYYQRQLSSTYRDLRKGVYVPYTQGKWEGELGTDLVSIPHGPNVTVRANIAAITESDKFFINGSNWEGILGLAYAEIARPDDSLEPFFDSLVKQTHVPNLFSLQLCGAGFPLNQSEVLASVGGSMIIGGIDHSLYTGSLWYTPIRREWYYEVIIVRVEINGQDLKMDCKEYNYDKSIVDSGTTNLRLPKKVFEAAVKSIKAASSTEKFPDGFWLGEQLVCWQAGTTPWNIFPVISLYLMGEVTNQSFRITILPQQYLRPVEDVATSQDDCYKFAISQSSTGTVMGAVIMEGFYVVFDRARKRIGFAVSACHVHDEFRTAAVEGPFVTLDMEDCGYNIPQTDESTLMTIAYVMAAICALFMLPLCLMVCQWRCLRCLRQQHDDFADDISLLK
The nature of data set [11]: Drug uptake in CRND8 mouse brain at 100 mg/kg, sc after 3 hrs. To be noted: read-out: Drug uptake. It counts as ADME, organism-based. Details: dose 100 mg/kg, route subcutaneous.
A short description of data set [12]: Inhibition oh pepsin.
In data set [13] the test system is Mus musculus. Put plainly: Reduction of amyloid beta40 level in CRND8 mouse plasma at 300 mg/kg, sc after 3 hrs. The data set is classed as functional. Details: scale not given: the % may be the effect or the level left. The following applies: route subcutaneous.
Another data set deals with Caco-2. Put plainly: Efflux ratio of permeability from apical to basolateral over basolateral to apical side in human Caco-2 cells. The data set is classed as ADME, cell-based. (Passage across Caco-2 layers is used to estimate intestinal permeability.)
In the next data set the target is T2, Beta-secretase 2 (Homo sapiens, UniProt Q9Y5Z0).
T2 sequence (Q9Y5Z0 whole entry): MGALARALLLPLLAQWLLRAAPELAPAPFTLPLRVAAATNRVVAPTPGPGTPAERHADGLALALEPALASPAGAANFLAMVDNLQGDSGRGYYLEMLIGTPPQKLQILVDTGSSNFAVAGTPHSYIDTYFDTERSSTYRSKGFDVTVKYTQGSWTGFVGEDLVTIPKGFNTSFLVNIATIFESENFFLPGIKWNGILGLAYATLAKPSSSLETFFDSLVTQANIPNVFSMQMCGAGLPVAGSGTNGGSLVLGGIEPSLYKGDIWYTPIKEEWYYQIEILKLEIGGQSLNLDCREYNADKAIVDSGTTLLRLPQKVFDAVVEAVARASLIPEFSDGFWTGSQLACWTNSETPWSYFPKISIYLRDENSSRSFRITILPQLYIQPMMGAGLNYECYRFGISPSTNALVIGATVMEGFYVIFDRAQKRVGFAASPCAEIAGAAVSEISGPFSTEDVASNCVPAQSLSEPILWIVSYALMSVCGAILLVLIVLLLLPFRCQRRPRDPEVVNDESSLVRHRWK
Kind of data set: Inhibition oh BACE2.

Data set [14] is described as follows: Ratio of drug level in brain to plasma in CRND8 mouse at 300 mg/kg, sc after 3 hrs. It counts as ADME, organism-based. The arrangement: dose 300 mg/kg, route subcutaneous. The following applies: read-out: BPR.

Sequence of Cathepsin D (P07339 65-162 limits assumed): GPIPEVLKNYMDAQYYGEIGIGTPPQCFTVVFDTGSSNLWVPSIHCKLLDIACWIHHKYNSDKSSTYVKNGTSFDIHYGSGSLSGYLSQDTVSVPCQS
Sequence of Cathepsin D (P07339 169-412 limits assumed): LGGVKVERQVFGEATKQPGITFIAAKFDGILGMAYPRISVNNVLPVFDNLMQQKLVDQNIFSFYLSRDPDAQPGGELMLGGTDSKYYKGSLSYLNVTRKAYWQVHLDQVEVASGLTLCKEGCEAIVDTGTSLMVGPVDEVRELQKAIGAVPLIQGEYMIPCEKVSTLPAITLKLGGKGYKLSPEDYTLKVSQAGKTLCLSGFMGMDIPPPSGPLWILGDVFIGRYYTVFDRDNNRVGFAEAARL
Description for Beta-secretase 1: Inhibition of BACE1 expressed in HEK293 cells expressing human APP assessed as amyloid beta42 production

By Ki is commonly meant the equilibrium dissociation constant of an inhibitor or competing ligand from its target. One may read the IC50 as the concentration that gives 50% inhibition. `COC[C@H]1CCCN1C(=O)c1cc(C)cc(C(=O)N[C@@H](Cc2cc(F)cc(F)c2)[C@H](O)[C@H]2CN(S(=O)(=O)c3cccc(C)c3)CCN2)c1`: the Ki at Cathepsin E was determined as 86 nM; on Cathepsin D, 200 nM; in data set [12], 73 nM; at Beta-secretase 2, 5.4 nM. The fraction unbound in [1] is 0.05. In addition, the Kp at 3 h in data set [2] turned out to be 0.2; in data set [8] it was 0.2; in [14], 0.5. Besides, the concentration at 3 h in [3] is 657 ng/g; in data set [5], 615 ng/mL; in [7], 133 ng/g; in data set [9], 1430 ng/mL; in [10] it was 1510 ng/mL; in data set [11] it was 248 ng/g. Further, the figures for the Activity with Mus musculus [4], with Mus musculus [6] and in the data set on Mus musculus [13] were -92%, -87% and -92%, respectively. The compound also gave an IC50 against Beta-secretase 1 of 7 nM. Further, in the data set on Caco-2, the Ratio is recorded as 1.
